Measurements: patent US9540366B2, “Ring-fused heterocyclic compound” (Kyowa Hakko Kirin Co., Ltd., priority 2012, dated 2017)
Like-named read-outs stand apart in the source and are kept apart here.

Target: T1, human Cav3.2 T-type Ca2+ channel (Homo sapiens, UniProt O95180)
T1 construct: expressed in transfected cells; host or cells: KJMGER8 cells (Namalwa cell-derived cell line)
Test: Inhibitory effect for intracellular calcium response via Cav3.2 T-type Ca2+ channels (FLIPR Calcium 3 Assay Kit)
Assay type: cell-based

[1] = human Cav3.2-expressing KJMGER8 cells (Namalwa-derived), calcium response induced by 5 mmol/L CaCl2, 3 μmol/L mibefradil as reference, read-out: IC50 for the human Cav3.2 T-type Ca2+ current

T1 sequence (O95180 whole entry): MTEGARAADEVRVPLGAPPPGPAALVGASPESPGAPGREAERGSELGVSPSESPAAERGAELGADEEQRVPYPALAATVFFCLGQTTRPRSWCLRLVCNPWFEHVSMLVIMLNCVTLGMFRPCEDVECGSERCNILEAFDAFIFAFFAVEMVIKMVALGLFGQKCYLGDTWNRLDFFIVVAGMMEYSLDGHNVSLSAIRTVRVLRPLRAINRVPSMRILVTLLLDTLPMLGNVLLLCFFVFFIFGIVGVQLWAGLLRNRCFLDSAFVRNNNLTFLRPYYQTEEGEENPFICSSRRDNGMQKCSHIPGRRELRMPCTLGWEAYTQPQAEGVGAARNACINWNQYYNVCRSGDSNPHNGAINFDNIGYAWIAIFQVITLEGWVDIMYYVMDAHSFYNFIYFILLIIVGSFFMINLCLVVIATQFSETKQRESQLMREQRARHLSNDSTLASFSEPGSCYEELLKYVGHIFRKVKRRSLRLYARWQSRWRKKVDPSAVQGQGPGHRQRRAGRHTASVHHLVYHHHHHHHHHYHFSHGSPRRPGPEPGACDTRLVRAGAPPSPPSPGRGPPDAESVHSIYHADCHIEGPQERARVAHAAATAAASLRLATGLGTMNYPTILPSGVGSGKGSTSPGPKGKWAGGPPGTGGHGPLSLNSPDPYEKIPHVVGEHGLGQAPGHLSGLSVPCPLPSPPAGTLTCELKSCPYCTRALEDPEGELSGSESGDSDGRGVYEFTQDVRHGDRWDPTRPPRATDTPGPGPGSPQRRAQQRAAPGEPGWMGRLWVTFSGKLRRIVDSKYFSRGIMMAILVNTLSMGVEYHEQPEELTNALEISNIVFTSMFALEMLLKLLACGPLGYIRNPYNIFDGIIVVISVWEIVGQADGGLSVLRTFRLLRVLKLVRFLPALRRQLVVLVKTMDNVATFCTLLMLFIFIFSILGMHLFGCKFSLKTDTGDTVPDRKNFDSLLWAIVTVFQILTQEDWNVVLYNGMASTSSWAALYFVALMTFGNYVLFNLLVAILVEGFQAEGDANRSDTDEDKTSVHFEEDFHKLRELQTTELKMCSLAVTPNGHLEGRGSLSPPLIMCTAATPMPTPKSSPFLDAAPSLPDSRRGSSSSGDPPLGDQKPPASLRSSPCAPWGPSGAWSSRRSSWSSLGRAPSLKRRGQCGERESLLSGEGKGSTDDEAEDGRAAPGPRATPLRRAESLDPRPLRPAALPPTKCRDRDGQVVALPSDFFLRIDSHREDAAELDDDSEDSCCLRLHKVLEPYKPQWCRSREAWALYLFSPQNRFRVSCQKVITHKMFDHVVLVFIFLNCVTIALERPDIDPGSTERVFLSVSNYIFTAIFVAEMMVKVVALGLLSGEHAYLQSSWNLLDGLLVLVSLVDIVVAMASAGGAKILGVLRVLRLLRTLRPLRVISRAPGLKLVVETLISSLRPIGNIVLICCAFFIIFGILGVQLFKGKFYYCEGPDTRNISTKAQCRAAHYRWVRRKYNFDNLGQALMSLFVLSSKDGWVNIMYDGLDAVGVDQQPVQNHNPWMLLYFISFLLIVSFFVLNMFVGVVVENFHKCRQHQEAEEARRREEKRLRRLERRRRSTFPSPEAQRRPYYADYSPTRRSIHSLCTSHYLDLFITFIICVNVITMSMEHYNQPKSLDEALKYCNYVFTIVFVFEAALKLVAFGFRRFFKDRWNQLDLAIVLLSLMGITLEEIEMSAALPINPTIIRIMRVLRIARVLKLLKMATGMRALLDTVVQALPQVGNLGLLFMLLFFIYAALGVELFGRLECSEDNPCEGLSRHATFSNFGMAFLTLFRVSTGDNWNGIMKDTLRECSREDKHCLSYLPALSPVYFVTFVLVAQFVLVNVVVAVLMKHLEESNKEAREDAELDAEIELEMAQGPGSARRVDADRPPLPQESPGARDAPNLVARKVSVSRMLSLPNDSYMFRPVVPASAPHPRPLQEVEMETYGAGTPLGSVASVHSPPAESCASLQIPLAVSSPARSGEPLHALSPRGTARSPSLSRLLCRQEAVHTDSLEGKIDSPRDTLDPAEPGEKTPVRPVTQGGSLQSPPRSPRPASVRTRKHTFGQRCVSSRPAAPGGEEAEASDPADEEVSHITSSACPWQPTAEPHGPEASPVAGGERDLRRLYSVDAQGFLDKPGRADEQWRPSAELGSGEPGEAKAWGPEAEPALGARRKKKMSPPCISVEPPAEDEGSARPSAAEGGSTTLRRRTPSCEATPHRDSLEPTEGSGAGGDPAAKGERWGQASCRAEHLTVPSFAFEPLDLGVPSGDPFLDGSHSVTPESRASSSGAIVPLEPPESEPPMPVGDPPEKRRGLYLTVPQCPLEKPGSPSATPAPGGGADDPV

`C[C@H](NC(=O)c1cc(C#N)n2c(CC3CCC(F)(F)CC3)c(C(F)(F)F)nc2c1)C(=O)N(C)C` [Compound 187, (S)-5-Cyano-3-[(4,4-difluorocyclohexyl)methyl]-N-[1-(dimethylamino)-1-oxopropan-2-yl]-2-(trifluoromethyl)imidazo[1,2-a]pyridine-7-carboxamide] gave an IC50 of at most 100 nM.

For `O=C(NC1CCC(F)(F)CC1)c1cc2nc(C3CC3)c(CC3CCC(F)(F)CC3)n2cc1Cl` [Compound 14, 6-Chloro-2-cyclopropyl-N-(4,4-difluorocyclohexyl)-3-[(4,4-difluorocyclohexyl)methyl]imidazo[1,2-a]pyridine-7-carboxamide], the IC50 was at most 100 nM.

For `Cc1cc(C(=O)NC2CCC(F)(F)CC2)cc2nc(C(C)(C)O)c(CC3CCC(F)(F)CC3)n12` [Compound 9, N-(4,4-Difluorocyclohexyl)-3-[(4,4-difluorocyclohexyl)methyl]-2-(2-hydroxypropan-2-yl)-5-methylimidazo[1,2-a]pyridine-7-carboxamide], the IC50 [1] was at most 100 nM.

In the case of `Cc1c(C(=O)NC2CCOCC2)cc(C)n2c(CC3CCC(F)(F)CC3)c(C(F)(F)F)nc12` [Compound 166, 3-[(4,4-Difluorocyclohexyl)methyl]-5,8-dimethyl-N-(tetrahydro-2H-pyran-4-yl)-2-(trifluoromethyl)imidazo[1,2-a]pyridine-7-carboxamide], the IC50 is reported as at most 100 nM.

Compound `Cc1cc(C(=O)NC2CC3(COC3)C2)cc2nc(C(F)(F)F)c(CC3CCC(F)(F)CC3)n12` [Compound 88, 3-[(4,4-Difluorocyclohexyl)methyl]-5-methyl-N-(2-oxaspiro[3.3]heptan-6-yl)-2-(trifluoromethyl)imidazo[1,2-a]pyridine-7-carboxamide] has an IC50 of at most 100 nM.

In the case of `N#Cc1cc(C(=O)NC2CCOCC2)cc2nc(C(F)(F)F)c(Cc3ccc(Cl)cc3)n12` [Compound 211, 3-(4-Chlorobenzyl)-5-cyano-N-(tetrahydro-2H-pyran-4-yl)-2-(trifluoromethyl)imidazo[1,2-a]pyridine-7-carboxamide], the IC50 is reported as at most 100 nM.

`Cc1cc(CC(=O)NOC2CCOCC2)cc2nc(C(F)(F)F)c(CC3CCC(F)(F)CC3)n12` [Compound 84, 2-{3-[(4,4-Difluorocyclohexyl)methyl]-5-methyl-2-(trifluoromethyl)imidazo[1,2-a]pyridin-7-yl}-N-(tetrahydro-2H-pyran-4-yloxy)acetamide] showed an IC50 of at most 100 nM.

`N#Cc1cc(C(=O)NC23CCN(CC2)C3)cc2nc(C(F)(F)F)c(CC3CCC(F)(F)CC3)n12` [Compound 188, N-(1-Azabicyclo[2.2.1]heptan-4-yl)-5-cyano-3-[(4,4-difluorocyclohexyl)methyl]-2-(trifluoromethyl)imidazo[1,2-a]pyridine-7-carboxamide] showed an IC50 of at most 100 nM.

`O=C(CNC(=O)c1cc(Cl)n2c(CC3CCC(F)(F)CC3)c(C(F)(F)F)nc2c1)Nc1ccccc1` [Compound 151, 5-Chloro-3-[(4,4-difluorocyclohexyl)methyl]-N-[2-oxo-2-(phenylamino)ethyl]-2-(trifluoromethyl)imidazo[1,2-a]pyridine-7-carboxamide] showed an IC50 of at most 100 nM.

Compound `Cc1cc(C(=O)NC(C)(C)C)cc2nc(C(C)C)c(CC3CCC(F)(F)CC3)n12` [Compound 219, N-tert-Butyl-3-[(4,4-difluorocyclohexyl)methyl]-2-isopropyl-5-methylimidazo[1,2-a]pyridine-7-carboxamide] has an IC50 of at most 100 nM.

Work on `CC(C)(C)NC(=O)c1cc(C#N)n2c(CC3CCC(F)(F)CC3)c(C(F)(F)F)nc2c1` [Compound 198, N-tert-Butyl-5-cyano-3-[(4,4-difluorocyclohexyl)methyl]-2-(trifluoromethyl)imidazo[1,2-a]pyridine-7-carboxamide] yielded an IC50 [1] of at most 100 nM.

`O=C(NCc1ccncc1)c1cc(Cl)n2c(CC3CCC(F)(F)CC3)c(C(F)(F)F)nc2c1` [Compound 97] was tested, and the IC50 was at most 100 nM.

Compound `CC(F)(F)c1nc2cc(C(=O)N[C@H]3C[C@@H]4CC[C@H]3O4)cc(C#N)n2c1Cc1ccc(Cl)cc1` [Compound 222, N-[(1R,2S,4S)-7-Oxabicyclo[2.2.1]heptan-2-yl]-3-(4-chlorobenzyl)-5-cyano-2-(1,1-difluoroethyl)imidazo[1,2-a]pyridine-7-carboxamide] has an IC50 of at most 100 nM.

For `N#Cc1cc(C(=O)NC2CCOC2=O)cc2nc(C(F)(F)F)c(CC3CCC(F)(F)CC3)n12` (centres unmarked) [Compound 140, 5-Cyano-3-[(4,4-difluorocyclohexyl)methyl]-N-(2-oxotetrahydrofuran-3-yl)-2-(trifluoromethyl)imidazo[1,2-a]pyridine-7-carboxamide], the IC50 was at most 100 nM.

Compound `CC(F)(F)c1nc2cc(C(=O)NCC3CCOC3)c(Cl)cn2c1CC1CCC(F)(F)CC1` (centres unmarked) [Compound 24, 6-Chloro-3-[(4,4-difluorocyclohexyl)methyl]-2-(1,1-difluoroethyl)-N-[(tetrahydrofuran-3-yl)methyl]imidazo[1,2-a]pyridine-7-carboxamide] has an IC50 of at most 100 nM.

For `Cc1cc(C(=O)NC2CCC3(CC2)COC3)cc2nc(C(F)(F)F)c(CC3CCC(F)(F)CC3)n12` [Compound 126, 3-[(4,4-Difluorocyclohexyl)methyl]-5-methyl-N-(2-oxaspiro[3.5]nonan-7-yl)-2-(trifluoromethyl)imidazo[1,2-a]pyridine-7-carboxamide], the IC50 [1] was at most 100 nM.

In the case of `CC(C)(Oc1ccccc1)c1c(C(F)(F)F)nc2cc(C(=O)Nc3ccccc3)ccn12` [Compound 163, 3-(2-Phenoxypropan-2-yl)-N-phenyl-2-(trifluoromethyl)imidazo[1,2-a]pyridine-7-carboxamide], the IC50 [1] is reported as at most 100 nM.

Work on `O=C(NCC1(CO)CC1)c1cc(Cl)n2c(CC3CCC(F)(F)CC3)c(C(F)(F)F)nc2c1` [Compound 174, 5-Chloro-3-[(4,4-difluorocyclohexyl)methyl]-N-{[1-(hydroxymethyl)cyclopropyl]methyl}-2-(trifluoromethyl)imidazo[1,2-a]pyridine-7-carboxamide] yielded an IC50 of at most 100 nM.

For `CC(C)c1nc2cc(C(=O)NC3CC(F)(F)C3)cc(C#N)n2c1CC1CCC(F)(F)CC1` [Compound 170, 5-Cyano-N-(3,3-difluorocyclobutyl)-3-[(4,4-difluorocyclohexyl)methyl]-2-isopropylimidazo[1,2-a]pyridine-7-carboxamide], the IC50 was at most 100 nM.

In the case of `CC(C)(NC(=O)c1cc(C#N)n2c(CC3CCC(F)(F)CC3)c(C(F)(F)F)nc2c1)C1CCOCC1` [Compound 63, 5-Cyano-3-[(4,4-difluorocyclohexyl)methyl]-N-[2-(tetrahydro-2H-pyran-4-yl)propan-2-yl]-2-(trifluoromethyl)imidazo[1,2-a]pyridine-7-carboxamide], the IC50 is reported as at most 100 nM.

`CC(F)(F)c1nc2cc(C(=O)NC3CCOCC3)cc(C=O)n2c1CC1CCC(F)(F)CC1` [Compound 158, 3-[(4,4-Difluorocyclohexyl)methyl]-2-(1,1-difluoroethyl)-5-formyl-N-(tetrahydro-2H-pyran-4-yl)imidazo[1,2-a]pyridine-7-carboxamide] gave an IC50 of at most 100 nM.

For `Cc1cc(C(=O)NC2CCOCC2)cc2nc(C(F)(F)F)c(Cc3ccc(F)cc3)n12` [Compound 212, 3-(4-Fluorobenzyl)-5-methyl-N-(tetrahydro-2H-pyran-4-yl)-2-(trifluoromethyl)imidazo[1,2-a]pyridine-7-carboxamide], the IC50 was at most 100 nM.

For `Cc1cc(C(=O)NC2CCOCC2)cc2nc(C(C)(C)C)c(CC3CCC(F)(F)CC3)n12` [Compound 4, 2-tert-Butyl-3-[(4,4-difluorocyclohexyl)methyl]-5-methyl-N-(tetrahydro-2H-pyran-4-yl)imidazo[1,2-a]pyridine-7-carboxamide], the IC50 was at most 100 nM.
